Each structure is given as a SMILES string. Structures can show the parent of a compound that is named as a salt. Where two headings read alike, the source gives them in different places. Bounds are passed on as bounds.

A word on the IC50: it is the concentration needed to halve the response being measured.

For test [1], the system named is Ebola virus. Kind of test: microbe, parasite or virus in culture. It is filed as cell-based, Ebolavirus (EBOV). The following applies: Zaire ebolavirus; for IC50: HepG2, read-out: IC50 (μM) HepG2; for Emax: HepG2, read-out: Max Effect HepG2.
The subject of test [2] is Ebola virus. Kind of test: microbe, parasite or virus in culture. It is filed as cell-based, Ebolavirus (EBOV). The following applies: Zaire ebolavirus, Vero.

Consider `COc1ccc(CN2CCN(C(c3ccc(F)cc3)c3ccc(F)cc3)CC2)c(OC)c1OC` [Lomerizine Dihydrochloride], for which the IC50 was found to be 2.1 µM in the test with Ebola virus [1], 10.1 µM in the test on Ebola virus [2] and 11 µM in the test with Ebola virus [2] (read-out: IC50 (μM) Vero). The Emax in the test on Ebola virus [1] stood at 91.8%; with Ebola virus [2] (read-out: Max Effect), 66.5%; in the test on Ebola virus [2] (read-out: Max Effect Vero) it was 89.9%.
Regarding `CN(C)CCCN1c2ccccc2CCc2ccc(Cl)cc21` [Clomipramine Hydrochloride], the Emax in the test on Ebola virus [1] came out at 89.7%; with Ebola virus [2] (read-out: Max Effect), 58.5%; in the test on Ebola virus [2] (read-out: Max Effect Vero), 96.1%.
On to `O=C1C(O)=C([C@H]2CC[C@H](c3ccc(Cl)cc3)CC2)C(=O)c2ccccc21` [Atovaquone], for which the Emax in the test with Ebola virus [1] came to 23.1%; in the test with Ebola virus [2] (read-out: Max Effect), 90%; with Ebola virus [2] (read-out: Max Effect Vero) it was 73.9%. The IC50 in the test on Ebola virus [2] is less than 1 µM; with Ebola virus [2] (read-out: IC50 (μM) Vero) it was 0.44 µM.
As to `Cc1nc(Nc2ncc(C(=O)Nc3c(C)cccc3Cl)s2)cc(N2CCN(CCO)CC2)n1` [Dasatinib], the IC50 in the test with Ebola virus [1] was 4.2 µM; in the test with Ebola virus [2] (read-out: IC50 (μM) Vero), 16 µM. Moreover, the Emax with Ebola virus [1] was determined as 94.1%; in the test with Ebola virus [2] (read-out: Max Effect) it was 42.8%; in the test on Ebola virus [2] (read-out: Max Effect Vero) it was 64.2%.
In the case of `COc1c(C)c2c(c(O)c1C/C=C(\C)CCC(=O)OCCN1CCOCC1)C(=O)OC2` [Mycophenolate Mofetil], the 50% inhibitory concentration (IC50) in the test on Ebola virus [1] was 0.29 µM; in the test on Ebola virus [2] it was less than 1 µM. For the same compound, the results for the Emax with Ebola virus [1], with Ebola virus [2] (read-out: Max Effect) and in the test with Ebola virus [2] (read-out: Max Effect Vero) were 88.6%, 90% and 43.8%, respectively.
As to `CN1CCN(CCCN2c3ccccc3Sc3ccc(Cl)cc32)CC1` [Prochlorperazine Edisylate], the Emax turned out to be 94.7% in the test on Ebola virus [1], 89% in the test on Ebola virus [2] (read-out: Max Effect) and 96.3% with Ebola virus [2] (read-out: Max Effect Vero).
For `CNCCCC12CCC(c3ccccc31)c1ccccc12` [Maprotiline Hydrochloride], the Emax in the test on Ebola virus [1] was determined as 92.5%; with Ebola virus [2] (read-out: Max Effect), 79.5%; in the test on Ebola virus [2] (read-out: Max Effect Vero) it was 98.6%.
